The subject of one assay is IRS1 and AKT. Nature of the assay: IRS1 and AKT phosphorylation in 3T3-L1 adipocytes (immunoblot). In kind it is cell-based. The note with it: 10 nM insulin. Here is the method: Immunoblotting. For preparing total cell lysates, 3T3-L1 adipocytes were washed with Ca^2+/Mg^2+-free PBS and then lysed in the lysis buffer (50 mM HEPES, pH 7.2, 150 mM NaCl, 50 mM NaF, 1 mM Na3VO4, 10% glycerol, 1% Triton X-100). The lysates were centrifuged at 15,000 rpm for 15 min at 4° C. The proteins were denatured by boiling in laemmli sample buffer for 5 min at 95° C., separated by SDS-PAGE. SDS-gel was transferred to nitrocellulose membrane using Hoefer wet transfer system. Membranes were blocked in TTBS (20 mM Tris-HCl, pH 7.6, 150 mM NaCl, 0.05% Tween 20) containing 5% skimmed milk powder for 30 min and then incubated with antibodies for 3 hours. After washing membranes several times with TTBS, the blots were incubated with HRP (Horseradish peroxidase)-conjugated goat anti-rabbit for 1 hour. The blots were washed with TTBS and developed by ECL.

The next assay concerns GLUT4. The assay can be described thus: GLUT4 translocation to the plasma membrane in 3T3-L1 adipocytes. In kind it is cell-based. The note with it: 100 nM insulin, 10 min. The protocol: Membrane fractionation of adipocytes. For obtaining total membranes (TM) from 3T3-L1 adipocytes, cells were collected into 10 ml of ice-cold HES buffer (250 mM sucrose, 1 mM EDTA, 1 mM phenylmethylsulfonyl fluoride [PMSF], 1 μM pepstatin, 1 μM aprotinin, 1 μM leupeptin, and 20 mM HEPES, pH 7.4) and subsequently homogenized with 30 strokes in a glass Dounce homogenizer at 4° C. After centrifugation at 1,000 g for 5 min at 4° C. to remove unbroken cells, the supernatant was then centrifugated at 212,000 g for 90 min at 4° C. to yield a pellet of total cellular membranes. To obtain the plasma membrane (PM) subcellular fraction from 3T3-L1 adipocytes, differential ultracentrifugation was used as described previously (Perrini, S., et al., Diabetes 53, pp. 41-52, 2004).
Immunoblotting. For preparing total cell lysates, 3T3-L1 adipocytes were washed with Ca^2+/Mg^2+-free PBS and then lysed in the lysis buffer (50 mM HEPES, pH 7.2, 150 mM NaCl, 50 mM NaF, 1 mM Na3VO4, 10% glycerol, 1% Triton X-100). The lysates were centrifuged at 15,000 rpm for 15 min at 4° C. […]
FIGS. 3A and 3B show LPC stimulates GLUT4 translocation in 3T3-L1 adipocytes. […] In each experiment, the relative increase or decrease in the integrated density value (IDV) of GLUT4 after stimulation with compounds is calculated. B) Quantitation of relative increases is depicted. […]

With insulin [reference compound], the “phosphorylation of IRS1 and AKT” value in the assay on IRS1 and AKT is “augmentation of IRS1 and AKT phosphorylation”. The GLUT4 translocation entry with GLUT4 is “stimulate GLUT4 translocation”.

The values above are taken from patent US20100120662A1, “Glucose uptake modulator and method for treating diabetes or diabetic complications” (POSTECH Foundation, priority 2005, published 2010).
